Results as given in patent publication US6989153B2, “Radiation sensitive liposomes” (Varian Medical Systems Technologies, Inc., priority 1999, dated 2006).

Experiment: Ionizing radiation initiated polymerization of liposomes, by loss of monomer absorption intensity
Type: physicochemical
Details: for dependence of extent of polymerization on continuous or discontinuous exposure: ionizing radiation; for effect of dissolved oxygen on ionizing radiation initiated polymerization: liposomes in aqueous buffer, maximum dose rate 2.1×10^4 rad/h
From the text: The relative sensitivity to ionizing radiation of liposomes composed of either bis-SorbPC (1; FIG. 5), bis-DenPC (2; FIG. 5), or bis-AcrylPC (3; FIG. 5) was investigated. These polymerizable colipids have different reactivities that control the initial rate of polymerization, extent of polymerization, and inhibition by oxygen. The interaction of ionizing radiation with water produces radical species that can initiate radical chain polymerizations.
The rate of the ionizing radiation initiated polymerization (Rp) of liposomes composed of either bis-SorbPC, bis-DenPC, or bis-AcrylPC was determined by the loss of monomer absorption intensity. The maximum dose rate at the liposome samples was 2.1×10^4 rad/h. This intensity could be attenuated if desired. […] Radical polymerization of acryloyl functionalities are very sensitive to oxygen due to the high energy of the propagating species. In contrast, if the bis-AcrylPC liposome suspension was purged of oxygen the monomer could be converted to polymer in a few minutes. The Rp for bis-SorbPC liposomes in water (with or without oxygen present) was about twice that of bis-DenPC liposomes. The liposomes composed of bis-AcrylPC (without oxygen) were about 10 times more reactive than bis-SorbPC liposomes.
The usual experimental protocol for radiation exposure of the liposome samples utilized discontinuous exposure because samples for all the time points were exposed together. […] In some experiments the samples were exposed continuously. The percent loss of monomer depended on the total exposure, but was insensitive to whether the radiation was delivered in a continuous or punctuated manner.

Row | Compound | dependence of extent of polymerization on continuous or discontinuous exposure | time for conversion of monomer to polymer (liposome suspension purged of oxygen) | effect of dissolved oxygen on ionizing radiation initiated polymerization | change in monomer concentration (oxygen present, after 120 minutes of irradiation at the maximum dose rate) | reactivity relative to bis-SorbPC liposomes (without oxygen) | rate of polymerization (Rp) relative to bis-DenPC liposomes (liposomes in water, with or without oxygen present)
1 | bis-AcrylPC | independent of whether the exposure to ionizing radiation was continuous or discontinuous | a few minutes | inhibited by oxygen | no change in the monomer concentration | about 10 times | –
2 | bis-DenPC | – | – | relatively insensitive to the presence of dissolved oxygen | – | – | –
3 | CC=CC=CC(=O)OCCCCCCCCCC(=O)OC[C@H](COP(=O)([O-])OCC[N+](C)(C)C)OC(=O)CCCCCCCCCOC(=O)C=CC=CC [bis-SorbPC] | independent of whether the exposure to ionizing radiation was continuous or discontinuous | – | relatively insensitive to the presence of dissolved oxygen | – | – | about twice
